PMC7614683, “A small molecule PI3Kα activator for cardioprotection and neuroregeneration” (Nature, 2023)
Like-named read-outs stand apart in the source and are kept apart here.

Columns and labels:
Test in all cases: SelectScreen Z-LYTE kinase activity assay (SI Table 6)
Type in all cases: biochemical
[1] = biological target: protein kinases of the Z-LYTE panel (Homo sapiens, UniProt Q96GD4)
Procedure, shortened: (§1)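 A single compound concentration of 1 μM was profiled in the vendor's Adapta, Lantha and Z-LYTE kinase assays. In gel-based follow-ups with 200 μM compound, phosphorylation was resolved on Phos-tag SDS-PAGE and quantified by Coomassie. The ATM run used 1 mM ATP with GST-p53 for 30 min, and the mTORC1 run used 250 μM ATP with 4E-BP1 for 3 h.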

[2] = biological target: protein kinases of the Z-LYTE panel (Homo sapiens, UniProt P08922)
protein kinases of the Z-LYTE panel (Homo sapiens, UniProt P08922), sequence (P08922 28-2347): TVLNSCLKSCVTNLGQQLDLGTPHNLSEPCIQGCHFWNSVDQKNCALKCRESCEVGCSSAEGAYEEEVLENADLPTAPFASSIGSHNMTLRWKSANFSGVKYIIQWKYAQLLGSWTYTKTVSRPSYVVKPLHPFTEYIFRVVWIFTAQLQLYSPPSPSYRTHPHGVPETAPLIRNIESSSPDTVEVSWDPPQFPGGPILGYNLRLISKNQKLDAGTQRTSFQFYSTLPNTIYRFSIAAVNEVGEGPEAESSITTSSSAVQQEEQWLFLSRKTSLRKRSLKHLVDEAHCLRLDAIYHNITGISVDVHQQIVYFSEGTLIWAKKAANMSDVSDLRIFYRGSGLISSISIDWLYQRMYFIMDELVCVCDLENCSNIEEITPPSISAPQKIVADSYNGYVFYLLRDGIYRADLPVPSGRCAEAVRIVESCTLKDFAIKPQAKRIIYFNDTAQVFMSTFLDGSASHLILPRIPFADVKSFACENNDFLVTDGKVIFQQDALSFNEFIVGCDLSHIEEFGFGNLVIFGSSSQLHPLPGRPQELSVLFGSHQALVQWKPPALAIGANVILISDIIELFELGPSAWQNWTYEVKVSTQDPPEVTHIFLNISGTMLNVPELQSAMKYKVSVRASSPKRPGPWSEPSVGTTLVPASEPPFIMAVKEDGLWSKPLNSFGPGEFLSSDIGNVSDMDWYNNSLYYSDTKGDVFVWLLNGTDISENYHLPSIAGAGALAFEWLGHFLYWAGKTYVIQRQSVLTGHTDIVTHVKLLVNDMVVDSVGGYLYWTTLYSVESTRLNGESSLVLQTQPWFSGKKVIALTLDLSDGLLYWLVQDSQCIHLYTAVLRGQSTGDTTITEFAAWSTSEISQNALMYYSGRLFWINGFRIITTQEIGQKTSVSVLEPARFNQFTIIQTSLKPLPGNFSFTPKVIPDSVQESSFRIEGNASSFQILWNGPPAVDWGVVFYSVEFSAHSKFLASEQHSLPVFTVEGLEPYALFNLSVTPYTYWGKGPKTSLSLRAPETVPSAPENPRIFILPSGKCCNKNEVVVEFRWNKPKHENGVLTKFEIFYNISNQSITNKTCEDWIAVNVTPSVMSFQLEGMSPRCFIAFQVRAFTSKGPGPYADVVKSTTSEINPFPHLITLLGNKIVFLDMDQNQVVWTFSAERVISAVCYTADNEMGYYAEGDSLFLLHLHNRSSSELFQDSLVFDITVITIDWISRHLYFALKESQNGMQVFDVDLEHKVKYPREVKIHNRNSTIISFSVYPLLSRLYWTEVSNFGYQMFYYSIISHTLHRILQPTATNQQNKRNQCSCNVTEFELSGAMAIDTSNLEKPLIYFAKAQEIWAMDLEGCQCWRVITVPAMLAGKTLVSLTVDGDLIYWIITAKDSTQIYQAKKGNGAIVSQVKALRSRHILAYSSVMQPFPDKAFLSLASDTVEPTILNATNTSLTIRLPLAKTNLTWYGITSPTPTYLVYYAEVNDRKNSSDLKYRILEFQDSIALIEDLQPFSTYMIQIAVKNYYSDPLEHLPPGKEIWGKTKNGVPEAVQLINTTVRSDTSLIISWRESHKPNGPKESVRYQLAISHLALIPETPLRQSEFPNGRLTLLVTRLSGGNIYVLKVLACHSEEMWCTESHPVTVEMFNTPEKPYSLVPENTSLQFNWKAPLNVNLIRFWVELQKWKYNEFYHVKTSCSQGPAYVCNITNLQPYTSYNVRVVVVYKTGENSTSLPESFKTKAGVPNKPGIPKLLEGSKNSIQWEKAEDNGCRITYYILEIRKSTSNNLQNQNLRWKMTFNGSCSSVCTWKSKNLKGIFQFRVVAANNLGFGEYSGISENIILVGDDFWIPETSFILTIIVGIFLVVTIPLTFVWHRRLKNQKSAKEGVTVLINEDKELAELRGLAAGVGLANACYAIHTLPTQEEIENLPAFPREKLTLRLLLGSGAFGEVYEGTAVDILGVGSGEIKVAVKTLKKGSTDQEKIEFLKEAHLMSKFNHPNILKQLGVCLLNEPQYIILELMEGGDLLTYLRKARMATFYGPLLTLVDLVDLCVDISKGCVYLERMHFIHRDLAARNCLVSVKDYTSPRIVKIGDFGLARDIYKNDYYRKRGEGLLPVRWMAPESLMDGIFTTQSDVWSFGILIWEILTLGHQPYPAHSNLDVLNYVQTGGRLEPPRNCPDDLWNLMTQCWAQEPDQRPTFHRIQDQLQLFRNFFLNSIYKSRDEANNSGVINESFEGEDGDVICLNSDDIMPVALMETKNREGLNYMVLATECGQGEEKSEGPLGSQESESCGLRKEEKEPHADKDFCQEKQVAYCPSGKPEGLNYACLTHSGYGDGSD
Procedure, shortened: as §1

[3] = biological target: T1, protein kinases of the Z-LYTE panel (Homo sapiens, UniProt P54762)
T1 sequence (P54762 18-984): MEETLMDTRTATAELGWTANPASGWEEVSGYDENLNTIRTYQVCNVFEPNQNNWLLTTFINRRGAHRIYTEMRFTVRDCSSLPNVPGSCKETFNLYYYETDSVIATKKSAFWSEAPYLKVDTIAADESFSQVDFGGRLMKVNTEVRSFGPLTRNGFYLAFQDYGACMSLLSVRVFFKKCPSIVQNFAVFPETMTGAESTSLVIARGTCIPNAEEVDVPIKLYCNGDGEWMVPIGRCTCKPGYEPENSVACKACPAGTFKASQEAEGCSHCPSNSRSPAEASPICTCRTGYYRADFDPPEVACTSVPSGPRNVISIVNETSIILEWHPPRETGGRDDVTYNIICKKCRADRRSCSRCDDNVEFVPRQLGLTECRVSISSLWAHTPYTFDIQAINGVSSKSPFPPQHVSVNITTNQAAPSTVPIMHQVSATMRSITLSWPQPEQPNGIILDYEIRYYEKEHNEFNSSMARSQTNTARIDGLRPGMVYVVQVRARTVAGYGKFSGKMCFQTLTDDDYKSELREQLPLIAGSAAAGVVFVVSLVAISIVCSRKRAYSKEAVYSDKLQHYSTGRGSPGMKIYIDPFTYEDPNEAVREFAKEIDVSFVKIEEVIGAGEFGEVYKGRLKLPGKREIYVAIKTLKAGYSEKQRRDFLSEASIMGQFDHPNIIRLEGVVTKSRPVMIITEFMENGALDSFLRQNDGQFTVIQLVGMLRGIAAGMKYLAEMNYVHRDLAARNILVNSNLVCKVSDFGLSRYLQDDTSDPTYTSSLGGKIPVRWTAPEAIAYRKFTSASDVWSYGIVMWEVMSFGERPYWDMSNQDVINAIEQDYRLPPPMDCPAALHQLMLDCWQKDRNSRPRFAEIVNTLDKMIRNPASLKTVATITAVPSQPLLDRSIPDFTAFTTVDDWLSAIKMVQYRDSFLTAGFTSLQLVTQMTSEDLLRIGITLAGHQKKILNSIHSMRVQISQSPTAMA
Procedure, shortened: as §1

[4] = biological target: T2, protein kinases of the Z-LYTE panel (Homo sapiens, UniProt Q02156)
T2 sequence (Q02156 1-737): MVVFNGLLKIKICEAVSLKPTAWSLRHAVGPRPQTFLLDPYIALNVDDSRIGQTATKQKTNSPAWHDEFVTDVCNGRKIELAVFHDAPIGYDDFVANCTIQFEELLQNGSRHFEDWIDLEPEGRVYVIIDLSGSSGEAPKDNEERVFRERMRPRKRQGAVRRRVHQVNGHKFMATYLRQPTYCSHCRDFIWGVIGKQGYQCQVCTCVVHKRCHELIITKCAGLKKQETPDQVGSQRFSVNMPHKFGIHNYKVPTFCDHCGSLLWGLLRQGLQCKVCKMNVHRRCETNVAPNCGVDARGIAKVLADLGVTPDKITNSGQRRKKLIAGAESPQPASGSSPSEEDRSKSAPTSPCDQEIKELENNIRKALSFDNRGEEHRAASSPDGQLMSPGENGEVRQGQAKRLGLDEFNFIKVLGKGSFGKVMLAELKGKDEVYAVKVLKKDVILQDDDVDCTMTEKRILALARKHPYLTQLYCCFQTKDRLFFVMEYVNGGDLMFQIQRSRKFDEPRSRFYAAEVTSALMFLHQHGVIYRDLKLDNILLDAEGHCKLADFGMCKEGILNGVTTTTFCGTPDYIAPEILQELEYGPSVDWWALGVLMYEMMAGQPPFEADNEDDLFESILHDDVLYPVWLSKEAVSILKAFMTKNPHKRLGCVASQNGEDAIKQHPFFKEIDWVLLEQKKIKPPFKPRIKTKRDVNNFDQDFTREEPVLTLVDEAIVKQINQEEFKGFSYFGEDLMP
Procedure, shortened: as §1

[5] = biological target: protein kinases of the Z-LYTE panel (Homo sapiens, UniProt Q05397)
protein kinases of the Z-LYTE panel (Homo sapiens, UniProt Q05397), sequence (Q05397 whole entry): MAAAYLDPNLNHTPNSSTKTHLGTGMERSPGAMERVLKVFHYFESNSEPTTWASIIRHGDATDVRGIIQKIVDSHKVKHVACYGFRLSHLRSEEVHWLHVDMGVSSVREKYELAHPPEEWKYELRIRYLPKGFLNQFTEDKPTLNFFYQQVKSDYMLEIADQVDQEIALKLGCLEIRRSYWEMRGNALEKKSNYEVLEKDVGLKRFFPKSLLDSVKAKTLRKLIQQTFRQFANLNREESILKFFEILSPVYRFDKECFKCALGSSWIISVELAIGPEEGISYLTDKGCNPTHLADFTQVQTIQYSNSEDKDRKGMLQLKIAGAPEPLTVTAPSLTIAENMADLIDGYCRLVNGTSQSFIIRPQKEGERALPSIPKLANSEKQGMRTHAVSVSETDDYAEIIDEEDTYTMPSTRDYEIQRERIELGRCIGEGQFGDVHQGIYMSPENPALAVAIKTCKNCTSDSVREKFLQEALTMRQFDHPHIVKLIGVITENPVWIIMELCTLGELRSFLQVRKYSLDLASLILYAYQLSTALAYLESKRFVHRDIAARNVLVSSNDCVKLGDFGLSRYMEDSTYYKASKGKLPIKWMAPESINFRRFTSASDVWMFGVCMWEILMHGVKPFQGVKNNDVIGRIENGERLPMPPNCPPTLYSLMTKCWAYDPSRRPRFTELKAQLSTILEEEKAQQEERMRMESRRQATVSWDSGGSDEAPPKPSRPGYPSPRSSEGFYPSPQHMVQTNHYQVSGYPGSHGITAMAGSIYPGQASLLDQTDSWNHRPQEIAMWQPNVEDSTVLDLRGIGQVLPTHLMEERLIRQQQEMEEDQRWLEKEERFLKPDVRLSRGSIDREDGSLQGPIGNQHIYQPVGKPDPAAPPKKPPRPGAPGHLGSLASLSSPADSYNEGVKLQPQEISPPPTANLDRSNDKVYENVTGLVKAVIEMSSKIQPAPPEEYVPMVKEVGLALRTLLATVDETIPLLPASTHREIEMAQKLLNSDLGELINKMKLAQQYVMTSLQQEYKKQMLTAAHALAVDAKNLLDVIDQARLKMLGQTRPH
Procedure, shortened: as §1

protein kinases of the Z-LYTE panel (Homo sapiens, UniProt Q96GD4), sequence (Q96GD4 whole entry): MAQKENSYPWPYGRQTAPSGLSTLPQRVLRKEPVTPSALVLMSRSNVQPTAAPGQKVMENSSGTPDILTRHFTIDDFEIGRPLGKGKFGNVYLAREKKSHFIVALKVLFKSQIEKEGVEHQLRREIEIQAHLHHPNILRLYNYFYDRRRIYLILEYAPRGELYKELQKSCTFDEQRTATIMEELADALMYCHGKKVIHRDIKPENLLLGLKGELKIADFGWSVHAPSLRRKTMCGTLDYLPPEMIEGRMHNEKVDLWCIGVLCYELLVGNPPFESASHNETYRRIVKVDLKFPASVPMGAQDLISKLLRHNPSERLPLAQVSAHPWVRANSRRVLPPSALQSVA

SMILES: CCN1CCN(c2ccc(Nc3cc(Nc4cccc5c4N(C(C)=O)CC5)ccn3)cc2)CC1 [Compound 1938]
- inhibition at 1 µM ([1]; read-out: % Inhibition Point 1): 30%
- inhibition at 1 µM ([1]; read-out: % Inhibition Point 2): 29%
- inhibition at 1 µM ([1]; read-out: % Inhibition mean): 30%
- inhibition at 1 µM ([2]; read-out: % Inhibition Point 1): 19%
- inhibition at 1 µM ([2]; read-out: % Inhibition Point 2): 22%
- inhibition at 1 µM ([2]; read-out: % Inhibition mean): 21%
- inhibition at 1 µM ([3]; read-out: % Inhibition Point 1): 11%
- inhibition at 1 µM ([3]; read-out: % Inhibition Point 2): 11%
- inhibition at 1 µM ([3]; read-out: % Inhibition mean): 11%
- inhibition at 1 µM ([4]; read-out: % Inhibition Point 1): 1%
- inhibition at 1 µM ([4]; read-out: % Inhibition Point 2): 2%
- inhibition at 1 µM ([4]; read-out: % Inhibition mean): 1.57%
- inhibition at 1 µM ([5]; read-out: % Inhibition Point 1): 47%
- inhibition at 1 µM ([5]; read-out: % Inhibition Point 2): 47%
- inhibition at 1 µM ([5]; read-out: % Inhibition mean): 47%
